Data as given in patent US11414416B1, “Compounds and uses thereof” (Foghorn Therapeutics Inc., priority 2019, dated 2022).

target: Nanoluciferase-BRD9 fusion protein (Homo sapiens (Human), UniProt Q9H8M2); assay: SYO1 BRD9 NanoLuc degradation assay; assay type: cell-based; details: Table 5A; SYO-1 cells expressing 3×FLAG-NLuc-BRD9, 6 hours; read-out: SYO1 BRD9-NanoLuc degradation IC50
Experimental: Procedure: A stable SYO-1 cell line expressing 3×FLAG-NLuc-BRD9 was generated. On day 0 cells were seeded in 30 μL media into each well of 384-well cell culture plates. The seeding density was 8000 cells/well. […] Subsequently plates were incubated for 6 hours in a standard tissue culture incubator and equilibrated at room temperature for 15 minutes. Nanoluciferase activity was measured by adding 15 μL of freshly prepared Nano-Glo Luciferase Assay Reagent (Promega N1130), shaking the plates for 10 minutes and reading the bioluminescence using an EnVision reader.
DMSO treated cells are employed as High Control (HC) and 1 μM of a known BRD9 degrader standard treated cells are employed as Low Control (LC).

Nanoluciferase-BRD9 fusion protein, sequence (Q9H8M2 whole entry, the tested form may be a part): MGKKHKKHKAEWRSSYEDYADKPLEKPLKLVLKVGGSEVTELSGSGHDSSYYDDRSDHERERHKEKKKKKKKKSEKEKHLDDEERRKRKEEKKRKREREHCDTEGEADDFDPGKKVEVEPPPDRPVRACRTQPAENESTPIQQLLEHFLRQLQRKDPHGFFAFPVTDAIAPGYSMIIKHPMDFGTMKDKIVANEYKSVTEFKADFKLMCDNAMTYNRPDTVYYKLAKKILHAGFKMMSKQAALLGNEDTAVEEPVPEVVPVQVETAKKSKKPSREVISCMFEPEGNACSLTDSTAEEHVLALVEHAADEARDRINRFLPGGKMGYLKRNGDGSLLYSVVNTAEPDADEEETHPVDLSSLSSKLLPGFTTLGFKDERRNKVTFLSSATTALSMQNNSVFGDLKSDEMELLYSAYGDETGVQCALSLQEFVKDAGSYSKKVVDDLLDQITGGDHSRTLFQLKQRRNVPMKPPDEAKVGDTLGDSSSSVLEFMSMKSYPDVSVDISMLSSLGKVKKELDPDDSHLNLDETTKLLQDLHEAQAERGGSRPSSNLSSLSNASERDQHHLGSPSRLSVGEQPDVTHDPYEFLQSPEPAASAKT

Row | Compound | DC50 [nM]
1 | COc1cc(-c2cn(C)c(=O)c3cnccc23)cc(OC)c1CN1CC[C@H]1C(=O)NCCCCCCCCNc1cccc2c1C(=O)N([C@@H]1CCC(=O)NC1=O)C2=O (stereo in doubt) [Compound D18, (2S)-1-((2,6-dimethoxy-4-(2-methyl-1-oxo-2,7-naphthyridin-4-yl)phenyl)methy)-N-(8-((2-((R)-2,6-dioxopiperidin-3-yl)-1,3-dioxoisoindol-4-yl)amino)octyl) azetidine-2-carboxamide] | < 10
2 | COc1cc(-c2cc(C)c(=O)n(C)c2)cc(OC)c1CN1CC(C(=O)NCCCCCCCCNc2cccc3c2C(=O)N(C2CCC(=O)NC2=O)C3=O)C1 (stereo not shown) [Compound D16, 2-(2,6-dihydroxypiperidin-3-yl)-4-[(8-[[hydroxy(1-[[4-(6-hydroxy-1,5-dimethyl-1,6-dihydropyridin-3-yl)-2,6-dimethoxyphenyl]methyl]azetidin-3-yl)methyl]amino]octyl)amino]-2,3-dihydro-1H-isoindole-1,3-diol formic acid] | < 10
3 | COc1cc(-c2cn(C)c(=O)c3cnccc23)cc(OC)c1CN1CC[C@H]1C(=O)NCCCCCCCCNc1cccc2c1C(=O)N([C@H]1CCC(=O)NC1=O)C2=O [Compound D19, (2S)-1-((2,6-dimethoxy-4-(2-methyl-1-oxo-2,7-naphthyridin-4-yl)phenyl)methyl)-N-(8-((2-((S)-2,6-dioxopiperidin-3-yl)-1,3-dioxoisoindol-4-yl)amino)octyl) azetidine-2-carboxamide] | < 10
4 | COc1cc(-c2cn(C)c(=O)c3cnccc23)cc(OC)c1CN1CC2(CC(C(=O)NCCCCCCCCNc3cccc4c3C(=O)N(C3CCC(=O)NC3=O)C4=O)C2)C1 (stereo not shown) [Compound D20] | < 10
5 | COc1cc(-c2cn(C)c(=O)c3cnccc23)cc(OC)c1CN1CC(S(=O)(=O)NCCN2CCN(c3ccc4c(c3)C(=O)N(C3CCC(=O)NC3=O)C4=O)CC2)C1 (stereo not shown) [Compound D24, 1-[[2,6-dimethoxy-4-(2-methyl-1-oxo-2,7-naphthyridin-4-yl)phenyl]methyl]-N-(2-[4-[2-(2,6-dioxopiperidin-3-yl)-1,3-dioxoisoindol-5-yl]piperazin-1-yl]ethyl)azetidine-3-sulfonamide formic acid] | 10 to 100
6 | COc1cc(-c2cn(C)c(=O)c3cnccc23)cc(OC)c1CN1CCC(CCN2CCN(c3ccc4c(c3)C(=O)N(C3CCC(=O)NC3=O)C4=O)CC2)CC1 (stereo not shown) [Compound D42, 5-(4-(2-(1-(2,6-dimethoxy-4-(2-methyl-1-oxo-1,2-dihydro-2,7-naphthyridin-4-yl)benzyl)piperidin-4-yl)ethyl)piperazin-1-yl)-2-(2,6-dioxopiperidin-3-yl)isoindoline-1,3-dione formic acid] | < 10
7 | COc1cc(-c2cn(C)c(=O)c3cnccc23)cc(OC)c1CN1CCN(CCCCCOc2ccc3c(c2)C(=O)N(C2CCC(=O)NC2=O)C3=O)CC1 (stereo not shown) [Compound D44, 5-((5-(4-(2,6-dimethoxy-4-(2-methyl-1-oxo-1,2-dihydro-2,7-naphthyridin-4-yl)benzyl)piperazin-1-yl)pentyl)oxy)-2-(2,6-dioxopiperidin-3-yl)isoindoline-1,3-dione formic acid] | < 10
8 | COc1cc(-c2cn(C)c(=O)c3cnccc23)cc(OC)c1CN(C)CCOCCN1CCN(c2ccc3c(c2)C(=O)N(C2CCC(=O)NC2=O)C3=O)CC1 (stereo not shown) [Compound D46, 5-(4-(2-(2-((2,6-dimethoxy-4-(2-methyl-1-oxo-1,2-dihydro-2,7-naphthyridin-4-yl)benzyl)(methyl)amino)ethoxy)ethyl)piperazin-1-yl)-2-(2,6-dioxopiperidin-3-yl)isoindoline-1,3-dione formic acid] | < 10
9 | COc1cc(-c2cn(C)c(=O)c3cnccc23)cc(OC)c1CN1CC2(CC(CCOc3ccc4c(c3)C(=O)N(C3CCC(=O)NC3=O)C4=O)C2)C1 (stereo not shown) [Compound D48, 5-(2-(2-(2,6-dimethoxy-4-(2-methyl-1-oxo-1,2-dihydro-2,7-naphthyridin-4-yl)benzyl)-2-azaspiro[3.3]heptan-6-yl)ethoxy)-2-(2,6-dioxopiperidin-3-yl)isoindoline-1,3-dione formic acid] | 10 to 100
10 | COc1cc(-c2cn(C)c(=O)c3cnccc23)cc(OC)c1CN1CCC2(CC1)CN(CCCCOc1ccc3c(c1)C(=O)N(C1CCC(=O)NC1=O)C3=O)CCO2 (stereo not shown) [Compound D50, 5-(4-(9-(2,6-dimethoxy-4-(2-methyl-1-oxo-1,2-dihydro-2,7-naphthyridin-4-yl)benzyl)-1-oxa-4,9-diazaspiro[5.5]undecan-4-yl)butoxy)-2-(2,6-dioxopiperidin-3-yl)isoindoline-1,3-dione] | < 10
11 | COc1cc(-c2cn(C)c(=O)c3cnccc23)cc(OC)c1CN(C)C1CCN(CCOc2ccc3c(c2)C(=O)N(C2CCC(=O)NC2=O)C3=O)CC1 (stereo not shown) [Compound D51, 5-[2-[4-([[2,6-dimethoxy-4-(2-methyl-1-oxo-2,7-naphthyridin-4-yl)phenyl]methyl] (methyl)amino)piperidin-1-yl]ethoxy]-2-(2,6-dioxopiperidin-3-yl)isoindole-1,3-dione; formic acid] | < 10

Other lines, results leading:

Row | DC50 [nM] | Compound
12 | < 10 | COc1cc(-c2cn(C)c(=O)c3cnccc23)cc(OC)c1CN1CC(N)(C(=O)NCCCCCCCCNc2cccc3c2C(=O)N(C2CCC(=O)NC2=O)C3=O)C1 (stereo not shown) [Compound D17, 3-amino-1-[[2,6-dimethoxy-4-(2-methyl-1-oxo-1,2-dihydro-2,7-naphthyridin-4-yl)phenyl]methyl]-N-(8-[[2-(2,6-dioxopiperidin-3-yl)-1,3-dioxo-2,3-dihydro-1H-isoindol-4-yl]amino]octyl)azetidine-3-carboxamide]
13 | > 1000 | COc1cc(-c2cn(C)c(=O)c3cnccc23)cc(OC)c1CN1CC2(CC(C(=O)NCCCCCCNc3cccc4c3C(=O)N(C3CCC(=O)NC3=O)C4=O)C2)C1 (stereo not shown) [Compound D21]
14 | 10 to 100 | COc1cc(-c2cn(C)c(=O)c3cnccc23)cc(OC)c1CN1CC(S(=O)(=O)NCCCCNc2ccc3c(c2)C(=O)N(C2CCC(=O)NC2=O)C3=O)C1 (stereo not shown) [Compound D22, 1-[[2,6-dimethoxy-4-(2-methyl-1-oxo-1,2-dihydro-2,7-naphthyridin-4-yl)phenyl]methyl]-N-(4-[[2-(2,6-dioxopiperidin-3-yl)-1,3-dioxo-2,3-dihydro-1H-isoindol-5-yl]amino]butyl) azetidine-3-sulfonamide formic acid]
15 | 100 to 1000 | COc1cc(-c2cn(C)c(=O)c3cnccc23)cc(OC)c1CN1CC(N(C)Cc2cccc3c2C(=O)N(C2CCC(=O)NC2=O)C3=O)C1 (stereo not shown) [Compound D28, 4-(((1-(2,6-dimethoxy-4-(2-methyl-1-oxo-1,2-dihydro-2,7-naphthyridin-4-yl)benzyl)azetidin-3-yl)(methyl)amino)methyl)-2-(2,6-dioxopiperidin-3-yl)isoindoline-1,3-dione]
16 | 10 to 100 | COc1cc(-c2cn(C)c(=O)c3cnccc23)cc(OC)c1CN1CC(C(=O)N(C)Cc2cccc3c2C(=O)N(C2CCC(=O)NC2=O)C3=O)C1 (stereo not shown) [Compound D29, 1-(2,6-dimethoxy-4-(2-methyl-1-oxo-1,2-dihydro-2,7-naphthyridin-4-yl)benzyl)-N-((2-(2,6-dioxopiperidin-3-yl)-1,3-dioxoisoindolin-4-yl)methyl)-N-methylazetidine-3-carboxamide]
17 | 100 to 1000 | COc1cc(-c2cn(C)c(=O)c3cnccc23)cc(OC)c1CN1CC2(CN(CCOc3ccc4c(c3)C(=O)N(C3CCC(=O)NC3=O)C4=O)C2)C1 (stereo not shown) [Compound D43, 5-[2-(6-[[2,6-Dimethoxy-4-(2-methyl-1-oxo-2,7-naphthyridin-4-yl)phenyl]methyl]-2,6-diazaspiro[3.3]heptan-2-yl)ethoxy]-2-(2,6-dioxopiperidin-3-yl)isoindole-1,3-dione formic acid]
18 | < 10 | COc1cc(-c2cn(C)c(=O)c3cnccc23)cc(OC)c1CN1CC(S(=O)(=O)NCCOCCNc2cccc3c2C(=O)N(C2CCC(=O)NC2=O)C3=O)C1 (stereo not shown) [Compound D45, 1-[[2,6-dimethoxy-4-(2-methyl-1-oxo-2,7-naphthyridin-4-yl)phenyl]methyl]-N-[2-(2-[[2-(2,6-dioxopiperidin-3-yl)-1,3-dioxoisoindol-4-yl]amino]ethoxy)ethyl]azetidine-3-sulfonamide]
19 | < 10 | COc1cc(-c2cn(C)c(=O)c3cnccc23)cc(OC)c1CN1CCC2(CC1)CN(CCCCCOc1ccc3c(c1)C(=O)N(C1CCC(=O)NC1=O)C3=O)CCO2 (stereo not shown) [Compound D47, 5-[[5-(9-[[2,6-dimethoxy-4-(2-methyl-1-oxo-2,7-naphthyridin-4-yl)phenyl]methyl]-1-oxa-4,9-diazaspiro[5.5]undecan-4-yl)pentyl]oxy]-2-(2,6-dioxopiperidin-3-yl)isoindole-1,3-dione formic acid]
20 | > 1000 | COc1cc(-c2cn(C)c(=O)c3cnccc23)cc(OC)c1CN1CCC2(CC1)CN(CCOc1ccc3c(c1)C(=O)N(C1CCC(=O)NC1=O)C3=O)CCO2 (stereo not shown) [Compound D49, 5-[2-(9-[[2,6-dimethoxy-4-(2-methyl-1-oxo-2,7-naphthyridin-4-yl)phenyl]methyl]-1-oxa-4,9-diazaspiro[5.5]undecan-4-yl)ethoxy]-2-(2,6-dioxopiperidin-3-yl)isoindole-1,3-dione]
21 | 10 to 100 | COc1cc(-c2cn(C)c(=O)c3cnccc23)cc(OC)c1CN1CC(OCc2cn(CCOc3ccc4c(c3)C(=O)N(C3CCC(=O)NC3=O)C4=O)nn2)C1 (stereo not shown) [Compound D61, 5-(2-(4-(((1-(2,6-dimethoxy-4-(2-methyl-1-oxo-1,2-dihydro-2,7-naphthyridin-4-yl)benzyl)azetidin-3-yl)oxy)methyl)-1H-1,2,3-triazol-1-yl)ethoxy)-2-(2,6-dioxopiperidin-3-yl)isoindoline-1,3-dione]
22 | < 10 | COc1cc(-c2cn(C)c(=O)c3cnccc23)cc(OC)c1CN1CC(CC(=O)N2CCC3(CC2)CN(c2ccc4c(c2)C(=O)N(C2CCC(=O)NC2=O)C4=O)C3)C1 (stereo not shown) [Compound D76]
